A short description of this test: Inhibition of ADP-induced platelet aggregation in canine platelet-rich plasma.
In turn, `CC(=O)N[C@@H](CS)C(=O)N[C@@H](CCCN=C(N)N)C(=O)NCC(=O)N[C@@H](CC(=O)O)C(=O)N[C@@H](C(N)=O)C(C)(C)S` came in with an IC50 of 4.12 µM.

Compound `N=C(N)NCCC[C@@H]1NC(=O)[C@@H]2CCCN2C(=O)CNC(=O)[C@H]2CCCN2C(=O)[C@H](CC(=O)O)NC(=O)CNC1=O` gave an IC50 of 76.6 µM. This IC50 is about 19-fold higher than that of the compound before.

In the case of `N=C(N)NCCC[C@@H]1NC(=O)[C@@H]2CCCN2C(=O)[C@@H](Cc2ccccc2)NC(=O)CNC(=O)[C@H](CC(=O)O)NC(=O)CNC1=O`, the IC50 came to 17.7 µM.

For `N=C(N)NCCC[C@@H]1NC(=O)[C@@H]2CCCN2C(=O)[C@H]2CCCN2C(=O)CNC(=O)[C@H](CC(=O)O)NC(=O)CNC1=O`, the half-maximal inhibitory concentration (IC50) was found to be 5.26 µM.

In the case of `CC(=O)N[C@@H](CS)C(=O)N(C)[C@H](CCCN=C(N)N)C(=O)NCC(=O)N[C@@H](CC(=O)O)C(=O)N[C@H](C(N)=O)C(C)(C)S`, the IC50 was 1.79 µM.

Regarding `CN(C(=O)c1ccccc1S)[C@@H](CCCNC(=N)N)C(=O)NCC(=O)N[C@@H](CC(=O)O)C(=O)Nc1ccccc1S`, the 50% inhibitory concentration (IC50) was found to be 0.09 µM.

With `CC(=O)N[C@@H](CS)C(=O)N[C@@H](CCCNC(=N)N)C(=O)NCC(=O)N[C@@H](CC(=O)O)C(=O)N[C@H](C(N)=O)C(C)(C)S`, the 50% inhibitory concentration (IC50) was determined as 20.3 µM. This IC50 lies about 230-fold higher than the previous one.

With `CC(=O)N[C@@H](CS)C(=O)N(C)[C@@H](CCCN=C(N)N)C(=O)NCC(=O)N[C@@H](CC(=O)O)C(=O)N[C@H](C(N)=O)C(C)(C)S`, the midpoint of inhibition, the IC50, lay at 0.355 µM.

With `C[C@H](NC(=O)[C@H](CS)NC(=O)[C@@H]1CCCN1C(=O)[C@H](CO)NC(=O)[C@H](CC(=O)O)NC(=O)CNC(=O)[C@H](CCCNC(=N)N)NC(=O)CNC(=O)[C@@H](NC(=O)CN)C(C)(C)S)C(=O)O`, inhibition was half-maximal at 10.1 µM (IC50).

The compound `CC(=O)N[C@@H](CS)C(=O)N[C@H](CCCN=C(N)N)C(=O)NCC(=O)N[C@@H](CC(=O)O)C(=O)N[C@H](C(N)=O)C(C)(C)S` gave a half-maximal inhibitory concentration (IC50) of 4.1 µM.

The values are drawn from BindingDB's records for doi:10.1021/jm00099a026 (Smithkline Beecham Pharmaceuticals, 1992).
